Data: patent publication US12594339B2, “Lipid prodrugs of JAK inhibitors and uses thereof” (Seaport Therapeutics, Inc., priority 2019, dated 2026)

Assay: Lymphatic transport assay in mesenteric lymph-duct cannulated rats
Type: in vivo, rat
Conditions: marked with asterisk: analytical procedure without a hydrolysis step (intact lipid prodrug), intraduodenal infusion, anaesthetised mesenteric lymph-duct cannulated rats
Protocol: In order to assess the lymphatic transport of disclosed lipid prodrugs in rats, the mesenteric lymph ducts of the rats used in this study were cannulated to allow continual collection of mesenteric lymph. Lipid formulations containing the compound of interest were then administered to the animals, lymph was collected, and drug concentrations in the lymph samples were quantified.
Lipid-based formulations of the compounds of the invention or control compounds were prepared as previously described (Trevaskis, N. L. et al., Pharmaceutical Research, 2005, 22(11), 1863-1870, WO 2016/023082, and WO 2017/041139, hereby incorporated by reference).
In brief, either 1 or 2 mg of test prodrug, 40 mg oleic acid and 25 mg Tween 80 were mixed in a glass vial and incubated at 37° C. for 12-18 h to equilibrate. An aqueous phase consisting of 5.6 ml phosphate buffered saline (PBS, pH 7.4) was subsequently added to the lipid phase (tofacitinib was dissolved in PBS for the preparation of tofacitinib-containing formulations) and the formulation emulsified by ultrasonication with a Misonix XL 2020 ultrasonic processor (Misonix, Farmingdale, NY, USA) equipped with a 3.2-mm microprobe tip running at 30% of the maximal amplitude of 240 μm and a frequency of 20 kHz for 2 min at room temperature. Doses for administering to more than one animal can be prepared in one batch by suitably increasing the quantities given above. Drug/prodrug concentrations in all formulations were verified using HPLC-MS.
Male Sprague-Dawley (SD) rats were selected for the lymphatic transport studies. Rats (typically 240-320 g) were maintained on a standard diet and fasted overnight with free access to water prior to experiments.
Anesthetized rats were placed on a heated pad at 37° C. and cannulas inserted into the duodenum (for formulation administration and rehydration), mesenteric lymph duct (for lymph collection), and carotid artery (in cases where blood collection was conducted). Post-surgery, rats were re-hydrated for 0.5 h via intraduodenal infusion of normal saline at 2.8 mL/h. The lipid formulations were infused into the duodenum at 2.8 mL/h for 2 h after which, normal saline was infused at 2.8 mL/h for the remainder of the experiment. Lymph was continuously collected for up to 8 h into pre-weighed Eppendorf tubes containing 10 μL of 1,000 IU/mL heparin. The collection tubes were changed hourly and lymph flow was measured gravimetrically. Aliquots of hourly lymph samples were stored at −20° C. prior to assay.
For most compounds, drug concentration in lymph is expressed as total drug and includes free drug and drug associated with different glycerides. Lymph samples were first treated with a lipase or other appropriate conditions to liberate free active agent prior to measurement of active agent levels in the lymph. Treatment with a lipase or other hydrolysis conditions liberates free active agent from any corresponding re-esterified glycerides. Porcine pancreatic lipase is appropriate for this purpose. Alternatively, hydrolysis with 0.5 M NaOH may be used.
For certain compounds, drug concentration was measured for the intact lipid prodrug specifically, without exposing the lymph samples to hydrolysis conditions.
Transport of compounds into lymph during each hourly collection period was calculated from the product of the volume of lymph collected and the measured concentrations in lymph. For fluorescent or fluorescently-labelled compounds, the concentrations of total compound may be measured by fluorescence spectroscopy without hydrolysis.
Table 5 summarizes lymphatic transport of total tofacitinib related compound (% of administered dose) following intraduodenal infusion to anaesthetised, mesenteric lymph-duct cannulated rats. Data are presented as mean±SD when n≥3 or mean± range when n=2. […]
With CCCCCCCCCCCCCCCC(=O)OCC(COC(=O)CCCCCCCCCCCCCCC)OC(=O)CC(C)CCCCCCC(=O)n1ccc2c(N(C)[C@H]3CN(C(=O)CC#N)CC[C@H]3C)ncnc21 (stereo partly drawn) [I-9, 2-((10-(4-(((3R,4R)-1-(2-cyanoacetyl)-4-methylpiperidin-3-yl)(methyl)amino)-7H-pyrrolo[2,3-d]pyrimidin-7-yl)-3-methyl-10-oxodecanoyl)oxy)propane-1,3-diyl dipalmitate] the “Cumulative lymphatic transport % dose” value was “B* (lymphatic transport assay result between 1% and 10% (1%-10%))”. With CCCCCCCCCCCCCCCC(=O)OCC(COC(=O)CCCCCCCCCCCCCCC)OC(=O)CC(C)CCCCCCCCCCC(C)C(=O)n1ccc2c(N(C)[C@H]3CN(C(=O)CC#N)CC[C@H]3C)ncnc21 (stereo partly drawn) [I-39, 2-((15-(4-(((3R,4R)-1-(2-cyanoacetyl)-4-methylpiperidin-3-yl)(methyl)amino)-7H-pyrrolo[2,3-d]pyrimidin-7-yl)-3,14-dimethyl-15-oxopentadecanoyl)oxy)propane-1,3-diyl dipalmitate] the “Cumulative lymphatic transport % dose” value was “A* (lymphatic transport assay result of greater than 10% (>10%))”.

Same assay, conditions: numeric value for parent drug, intraduodenal infusion, anaesthetised mesenteric lymph-duct cannulated rats
For C[C@@H]1CCN(C(=O)CC#N)C[C@@H]1N(C)c1ncnc2[nH]ccc12 [Tofacitinib, tofacitinib, reference compound], the “Cumulative lymphatic transport % dose” value was less than 0.3 % dose.

Same assay, conditions: numeric value for parent drug, intraduodenal infusion, anaesthetised mesenteric lymph-duct cannulated rats; listed as tofacitinib
For C[C@@H]1CCN(C(=O)CC#N)C[C@@H]1N(C)c1ncnc2[nH]ccc12 [Tofacitinib, tofacitinib, reference compound], the “Cumulative lymphatic transport % dose” value was less than 0.3 % dose.

Same assay, conditions: total tofacitinib related compound (lymph hydrolysed before assay), intraduodenal infusion, anaesthetised mesenteric lymph-duct cannulated rats, lymph collected up to 8 h
For CCCCCCCCCCCCCCCC(=O)OCC(COC(=O)CCCCCCCCCCCCCCC)OC(=O)CC(C)CCCCCC(=O)n1ccc2c(N(C)[C@H]3CN(C(=O)CC#N)CC[C@H]3C)ncnc21 (stereo partly drawn) [I-7], the “Cumulative lymphatic transport % dose” value was “B (lymphatic transport assay result between 1% and 10% (1%-10%))”. In the case of CCCCCCCCCCCCCCCC(=O)OCC(COC(=O)CCCCCCCCCCCCCCC)OC(=O)CC(C)CCCCCCCCCCCC(=O)n1ccc2c(N(C)[C@H]3CN(C(=O)CC#N)CC[C@H]3C)ncnc21 (stereo partly drawn) [I-10, 2-((15-(4-(((3R,4R)-1-(2-cyanoacetyl)-4-methylpiperidin-3-yl)(methyl)amino)-7H-pyrrolo[2,3-d]pyrimidin-7-yl)-3-methyl-15-oxopentadecanoyl)oxy)propane-1,3-diyl dipalmitate], the “Cumulative lymphatic transport % dose” value is reported as “B (lymphatic transport assay result between 1% and 10% (1%-10%))”. With CCCCCCCCCCCCCCCC(=O)OCC(COC(=O)CCCCCCCCCCCCCCC)OC(=O)CC(C)CCCCCCC(C)CC(=O)n1ccc2c(N(C)[C@H]3CN(C(=O)CC#N)CC[C@H]3C)ncnc21 (stereo partly drawn) [I-13, 2-((12-(4-(((3R,4R)-1-(2-cyanoacetyl)-4-methylpiperidin-3-yl)(methyl)amino)-7H-pyrrolo[2,3-d]pyrimidin-7-yl)-3,10-dimethyl-12-oxododecanoyl)oxy)propane-1,3-diyl dipalmitate] the “Cumulative lymphatic transport % dose” value was “A (lymphatic transport assay result of greater than 10% (>10%))”. In the case of CCCCCCCCCCCCCCCC(=O)OCC(COC(=O)CCCCCCCCCCCCCCC)OC(=O)CC(C)CCCCCCC(=O)Oc1c(C)cc(COC(=O)n2ccc3c(N(C)[C@H]4CN(C(=O)CC#N)CC[C@H]4C)ncnc32)cc1C (stereo partly drawn) [I-14, 10-(1,3-bis(palmitoyloxy)propan-2-yl) 1-(4-(((4-(((3R,4R)-1-(2-cyanoacetyl)-4-methylpiperidin-3-yl)(methyl)amino)-7H-pyrrolo[2,3-d]pyrimidine-7-carbonyl)oxy)methyl)-2,6-dimethylphenyl) 8-methyldecanedioate], the “Cumulative lymphatic transport % dose” value is reported as “B (lymphatic transport assay result between 1% and 10% (1%-10%))”. For CCCCCCCCCCCCCCCC(=O)OCC(COC(=O)CCCCCCCCCCCCCCC)OC(=O)CC(C)CCCCCCCC(C)C(=O)Oc1c(C)cc(COC(=O)n2ccc3c(N(C)[C@H]4CN(C(=O)CC#N)CC[C@H]4C)ncnc32)cc1C (stereo partly drawn) [I-15, 12-(1,3-bis(palmitoyloxy)propan-2-yl) 1-(4-(((4-(((3R,4R)-1-(2-cyanoacetyl)-4-methylpiperidin-3-yl)(methyl)amino)-7H-pyrrolo[2,3-d]pyrimidine-7-carbonyl)oxy)methyl)-2,6-dimethylphenyl) 2,10-dimethyldodecanedioate], the “Cumulative lymphatic transport % dose” value was “A (lymphatic transport assay result of greater than 10% (>10%))”. With CCCCCCCCCCCCCCCC(=O)OCC(COC(=O)CCCCCCCCCCCCCCC)OC(=O)CC(C)CCCCCCCCC(=O)Oc1c(C)cc(COC(=O)n2ccc3c(N(C)[C@H]4CN(C(=O)CC#N)CC[C@H]4C)ncnc32)cc1C (stereo partly drawn) [I-16, 1-(1,3-bis(palmitoyloxy)propan-2-yl) 12-(4-(((4-(((3R,4R)-1-(2-cyanoacetyl)-4-methylpiperidin-3-yl)(methyl)amino)-7H-pyrrolo[2,3-d]pyrimidine-7-carbonyl)oxy)methyl)-2,6-dimethylphenyl) 3-methyldodecanedioate] the “Cumulative lymphatic transport % dose” value was “A (lymphatic transport assay result of greater than 10% (>10%))”. In the case of CCCCCCCC/C=C\CCCCCCCC(=O)OCC(COC(=O)CCCCCCC/C=C\CCCCCCCC)OC(=O)CC(C)CCCCCCCCCC(C)CC(=O)n1ccc2c(N(C)[C@H]3CN(C(=O)CC#N)CC[C@H]3C)ncnc21 (stereo partly drawn) [I-33, 2-((15-(4-(((3R,4R)-1-(2-cyanoacetyl)-4-methylpiperidin-3-yl)(methyl)amino)-7H-pyrrolo[2,3-d]pyrimidin-7-yl)-3,13-dimethyl-15-oxopentadecanoyl)oxy)propane-1,3-diyl dioleate], the “Cumulative lymphatic transport % dose” value is reported as “A (lymphatic transport assay result of greater than 10% (>10%))”. In the case of CCCCCCCCCCCCCCCC(=O)OCC(COC(=O)CCCCCCCCCCCCCCC)OC(=O)CC(C)CC(=O)OC(C)OC(=O)n1ccc2c(N(C)[C@H]3CN(C(=O)CC#N)CC[C@H]3C)ncnc21 (stereo partly drawn) [I-40, 1-(1,3-bis(palmitoyloxy)propan-2-yl) 5-(1-((4-(((3R,4R)-1-(2-cyanoacetyl)-4-methylpiperidin-3-yl)(methyl)amino)-7H-pyrrolo[2,3-d]pyrimidine-7-carbonyl)oxy)ethyl) 3-methylpentanedioate], the “Cumulative lymphatic transport % dose” value is reported as “D (lymphatic transport assay result of less than 0.05% (<0.05%))”.
